According to publication PMC6533572, “Elucidation of the Differences in Cinobufotalin’s Pharmacokinetics Between Normal and Diethylnitrosamine-Injured Rats: The Role of P-Glycoprotein” (Frontiers in Pharmacology, 2019):
≈ marks a conversion by molar mass, not a printed value.

Experiments:
P-glycoprotein (P-gp) = target: T1, P-glycoprotein (P-gp) (Homo sapiens, UniProt P08183); experiment: Cellular uptake (intracellular accumulation) in MDCK-MDR1 cells; type: in vitro ADME; conditions: 2 h; for increase of intracellular accumulation of cinobufotalin by verapamil: MDCK-MDR1 cells, verapamil 100 μM
T1 construct: expressed in transfected cells; host or cells: MDCK II (Madin Darby canine kidney) cells stably transfected with the MDR1 gene
T1 sequence (P08183 whole entry): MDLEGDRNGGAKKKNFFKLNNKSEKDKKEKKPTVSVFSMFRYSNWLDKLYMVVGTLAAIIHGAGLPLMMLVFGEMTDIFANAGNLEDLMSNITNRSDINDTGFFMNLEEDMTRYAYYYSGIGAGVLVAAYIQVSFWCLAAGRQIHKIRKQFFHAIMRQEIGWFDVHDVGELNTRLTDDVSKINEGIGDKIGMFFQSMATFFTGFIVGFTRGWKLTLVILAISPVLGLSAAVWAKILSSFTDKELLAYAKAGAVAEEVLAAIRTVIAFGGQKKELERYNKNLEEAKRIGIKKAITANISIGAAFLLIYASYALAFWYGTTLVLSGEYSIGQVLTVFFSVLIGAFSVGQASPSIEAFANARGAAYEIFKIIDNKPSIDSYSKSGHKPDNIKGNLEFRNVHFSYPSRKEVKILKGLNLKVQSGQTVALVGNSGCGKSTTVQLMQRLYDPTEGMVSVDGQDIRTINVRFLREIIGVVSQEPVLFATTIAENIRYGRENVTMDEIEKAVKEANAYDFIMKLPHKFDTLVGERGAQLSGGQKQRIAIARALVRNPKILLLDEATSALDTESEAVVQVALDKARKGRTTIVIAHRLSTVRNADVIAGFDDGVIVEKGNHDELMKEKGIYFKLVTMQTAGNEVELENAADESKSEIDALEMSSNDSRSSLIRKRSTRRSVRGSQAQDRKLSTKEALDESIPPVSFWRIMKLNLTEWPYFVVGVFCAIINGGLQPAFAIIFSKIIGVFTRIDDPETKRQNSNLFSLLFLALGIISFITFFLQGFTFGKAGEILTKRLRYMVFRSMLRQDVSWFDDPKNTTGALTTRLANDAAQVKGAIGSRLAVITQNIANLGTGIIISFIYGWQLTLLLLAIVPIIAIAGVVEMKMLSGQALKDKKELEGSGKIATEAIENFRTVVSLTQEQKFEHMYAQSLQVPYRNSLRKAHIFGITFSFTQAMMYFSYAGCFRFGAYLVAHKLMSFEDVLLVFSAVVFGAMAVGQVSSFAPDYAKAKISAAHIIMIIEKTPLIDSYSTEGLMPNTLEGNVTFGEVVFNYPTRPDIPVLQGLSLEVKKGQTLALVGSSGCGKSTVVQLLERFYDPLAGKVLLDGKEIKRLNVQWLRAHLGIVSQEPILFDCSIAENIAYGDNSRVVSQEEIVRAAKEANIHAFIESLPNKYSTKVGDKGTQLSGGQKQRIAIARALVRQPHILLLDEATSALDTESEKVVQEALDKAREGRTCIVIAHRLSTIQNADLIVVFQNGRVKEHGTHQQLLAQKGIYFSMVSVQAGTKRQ
Method: Madin Darby canine kidney (MDCK II) cells stably transfected with multidrug resistance 1 gene (MDCK-MDR1 cells) were conducted and used in cinobufotalin uptake studies. Wild type MDCK II or MDCK-MDR1 cells were seeded into six-well plates at the destiny of 2 × 10^5 cells/well and maintained at 37°C under 5% CO2 in DMEM with 10% FBS. The well-known P-gp inhibitor, verapamil (100 μM), was used as the positive control to evaluate the effect of P-gp on cinobufotalin uptake ([Bicker et al., 2017]).
The uptake experiment was performed when the cells reached 100% confluency. First, cells were washed three times using 37°C Hanks’ balanced salt solution (HBSS) buffer (pH = 7.2). Then, 2 mL HBSS (37°C, pH = 7.2) buffer containing cinobufotalin (5 and 20 μM) were added and incubated with cells in the absence or presence of potential P-gp inhibitors, verapamil (100 μM). After incubation for 2 h, the incubation medium was removed, and cells were washed three times using ice-cold HBSS buffer. Then 400 μL of ice-cold MeOH:H2O (1:1, v/v) were added into each well, the cells were collected and sonicated for 15 min in ice-cold water. The mixture was centrifuged at 4°C (12,000 g, 10 min), and the supernatant was subjected to UPLC-QTOF/MS for analyses.

Water solubility = type: physicochemical; conditions: pH 7.0
Text: Traditional Chinese Medicine (TMC) is widely used due to high efficiency and low toxicity in the treatment of various diseases. Toad venom (also known as Chan’su) is derived from the dried skin secretions of giant toads (Bufo gargarizans Cantor or Bufo melanostictus Suhneider) and is currently used in clinical practice, such as Cinobufacini injection, to treat HCC ([Kamano et al., 2002]; [Tang et al., 2008]; [Hu et al., 2011]; [Zhang et al., 2018]). Cinobufotalin (Figure 1A), a bufadienolide in chemical structure, is one of the major anti-tumor components of Cinobufacini injection ([Tao et al., 2010]; [Zhang et al., 2018]). […] This implied that cinobufotalin has shown excellent druggability.

[1] = Stability in 50% acetonitrile solution; type: physicochemical
Method: In addition, the stabilities of cinobufotalin at 20, 200, and 2000 ng/mL in different storage conditions were evaluated, including short term stability (such as 25°C for 4, 8, 12, and 24 h and 4°C for 4, 8, 12, and 24 h), long term stability (-80°C for 10 days) and three freeze-thaw cycles in rat plasma. Stabilities were expressed as the concentrations after different operations to the concentration at time zero. All of the samples were processed as described in Preparation of rat plasma samples section. A 5 μL aliquot was injected to UPLC-QTOF/MS for analyses.
In addition, we also evaluated the stability of cinobufotalin in 50% accetonitrile solution at 4°C and room temperature (25°C) after storage for 4, 8, 12, and 24 h.

SMILES: CC(=O)O[C@H]1[C@H]2O[C@]23[C@@H]2CC[C@]4(O)C[C@@H](O)CC[C@]4(C)[C@H]2CC[C@]3(C)[C@H]1c1ccc(=O)oc1 [Cinobufotalin]
- intracellular amount of cinobufotalin in MDCK II cells compared with MDCK-MDR1 cells (P-glycoprotein (P-gp); 5 and 20 μM): obviously higher
- increase of intracellular accumulation of cinobufotalin by verapamil (P-glycoprotein (P-gp); cinobufotalin 5 μM): 4.0 fold
- increase of intracellular accumulation of cinobufotalin by verapamil (P-glycoprotein (P-gp); cinobufotalin 20 μM): 3.5 fold
- solubility (Water solubility): 117 µg/mL (≈ 256 µM)
- Stability in 50% Acetonitrile solution, 4°C, 4 h ([1]; 20 ng/mL): 97.5 ± 5.7%
- Stability in 50% Acetonitrile solution, 4°C, 8 h ([1]; 20 ng/mL): 101.9 ± 3.6%
- Stability in 50% Acetonitrile solution, 4°C, 12 h ([1]; 20 ng/mL): 99.1 ± 2.5%
- Stability in 50% Acetonitrile solution, 4°C, 24 h ([1]; 20 ng/mL): 100.4 ± 2.7%
- Stability in 50% Acetonitrile solution, 25°C, 4 h ([1]; 20 ng/mL): 99.5 ± 4.4%
- Stability in 50% Acetonitrile solution, 25°C, 8 h ([1]; 20 ng/mL): 97.1 ± 2.3%
- Stability in 50% Acetonitrile solution, 25°C, 12 h ([1]; 20 ng/mL): 97.7 ± 4.6%
- Stability in 50% Acetonitrile solution, 25°C, 24 h ([1]; 20 ng/mL): 95.5 ± 4.3%
- Stability in 50% Acetonitrile solution, 4°C, 4 h ([1]; 200 ng/mL): 102.6 ± 6.8%
- Stability in 50% Acetonitrile solution, 4°C, 8 h ([1]; 200 ng/mL): 99.5 ± 4.0%
- Stability in 50% Acetonitrile solution, 4°C, 12 h ([1]; 200 ng/mL): 97.4 ± 2.9%
- Stability in 50% Acetonitrile solution, 4°C, 24 h ([1]; 200 ng/mL): 96.7 ± 2.6%
- Stability in 50% Acetonitrile solution, 25°C, 4 h ([1]; 200 ng/mL): 100.1 ± 2.8%
- Stability in 50% Acetonitrile solution, 25°C, 8 h ([1]; 200 ng/mL): 101.2 ± 2.0%
- Stability in 50% Acetonitrile solution, 25°C, 12 h ([1]; 200 ng/mL): 99.5 ± 4.3%
- Stability in 50% Acetonitrile solution, 25°C, 24 h ([1]; 200 ng/mL): 99.0 ± 2.8%
- Stability in 50% Acetonitrile solution, 4°C, 4 h ([1]; 2000 ng/mL): 102.0 ± 5.0%
- Stability in 50% Acetonitrile solution, 4°C, 8 h ([1]; 2000 ng/mL): 103.7 ± 3.5%
- Stability in 50% Acetonitrile solution, 4°C, 12 h ([1]; 2000 ng/mL): 96.3 ± 4.0%
- Stability in 50% Acetonitrile solution, 4°C, 24 h ([1]; 2000 ng/mL): 97.9 ± 2.5%
- Stability in 50% Acetonitrile solution, 25°C, 4 h ([1]; 2000 ng/mL): 100.3 ± 3.0%
- Stability in 50% Acetonitrile solution, 25°C, 8 h ([1]; 2000 ng/mL): 99.1 ± 1.1%
- Stability in 50% Acetonitrile solution, 25°C, 12 h ([1]; 2000 ng/mL): 98.4 ± 3.5%
- Stability in 50% Acetonitrile solution, 25°C, 24 h ([1]; 2000 ng/mL): 100.5 ± 3.3%
